# Literature values as cited in patent US11344529B2, “Compositions and methods for the treatment of metabolic conditions” (Reven IP HoldCo LLC, priority 2017, dated 2022).
# Columns and labels:
# [1] = more than 500 postmenopausal women
compound,measurement,setting,value
CC(C)=CCC/C(C)=C/CC/C(C)=C/CC/C(C)=C/CC1=C(C)C(=O)c2ccccc2C1=O [Vitamin K2],"total cholesterol, lipid peroxidation, aortic ester cholesterol deposition, plasma factor X activity",compared to the control group,"reduce total cholesterol levels, lipid peroxidation, ester cholesterol deposition in the aorta and factor X activity in plasma"
same,atherosclerotic plaque progression in the aorta and pulmonary arteries,"rabbits, 1-10 mg/kg daily for 10 weeks",inhibited the atherosclerotic plaque progression
same,association of intake with coronary calcification,[1],associated with the trend toward decreasing coronary calcification
